Data published in publication PMC5733478, “A Non-imaging High Throughput Approach to Chemical Library Screening at the Unmodified Adenosine-A3 Receptor in Living Cells” (Frontiers in Pharmacology, 2017).
Structures can show the parent of a compound that is named as a salt.

molecular target: T1, human A3AR (Homo sapiens, UniProt P0DMS8); assay: LOPAC library primary screen: single concentration (10 μM) inhibition of 25 nM CA200645 binding, PHERAstar FS; settings: not given
T1 construct: expressed in transfected cells
T1 sequence (P0DMS8 1-318): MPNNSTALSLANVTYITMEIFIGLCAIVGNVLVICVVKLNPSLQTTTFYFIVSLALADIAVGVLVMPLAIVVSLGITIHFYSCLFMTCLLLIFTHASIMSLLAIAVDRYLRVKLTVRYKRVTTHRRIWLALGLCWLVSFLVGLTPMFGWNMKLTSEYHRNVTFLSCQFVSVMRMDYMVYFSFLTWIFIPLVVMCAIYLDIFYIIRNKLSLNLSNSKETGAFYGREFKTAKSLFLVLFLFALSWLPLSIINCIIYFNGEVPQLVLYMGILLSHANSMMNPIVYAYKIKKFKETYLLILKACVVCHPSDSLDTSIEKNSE

SMILES	% 25 nM CA200645 binding	hit in LOPAC primary screen (inhibited the binding of CA200645 by >40%)	% Total CA200645 binding
N[C@@H](Cn1oc(=O)[nH]c1=O)C(=O)O [(+)-Quisqualic acid]	106.4 ± 10.3%	–	–
CN1C2CCC1CC(OC(=O)c1c[nH]c3ccccc13)C2.Cl (stereo not drawn)	109.6 ± 9.2%	–	–
CCCCCCCCc1ccc(-c2ccc(C(=O)O)cc2)cc1 [AC-55649]	83.6 ± 13.2%	–	–
O=C(CCCN1CCC2(CC1)C(=O)NCN2c1ccccc1)c1ccc(F)cc1 [Spiperone hydrochloride]	85.1 ± 18.3%	–	–
CC(C)c1cccc(C(C)C)c1O [Propofol]	96.0 ± 3.0%	–	–
CC(C)(C)NCC(O)c1ccccc1Cl (stereo not drawn) [Tulobuterol hydrochloride]	99.9 ± 4.7%	–	–
Cc1cccc(C)c1NC(=O)CN1CCCC1=O [Nefiracetam]	88.8 ± 23.8%	–	–
Cn1c(=O)[nH]c2ncn(C)c2c1=O [1,7-Dimethylxanthine]	100.9 ± 19.4%	–	–
CN(C)CCC(c1ccc(Cl)cc1)c1ccccn1.O=C(O)/C=C\C(=O)O (racemic) [(±)-Chlorpheniramine maleate]	99.2 ± 9.9%	–	–
N=C(N)NCCC[C@H](N)C(=O)O [L-Arginine]	97.1 ± 5.5%	–	–
Nc1ncnc2c1nc(Sc1ccc(Cl)cc1)n2C1OC2COP(=O)(O)OC2C1O (stereo in doubt) [8-(4-Chlorophenylthio)-cAMP sodium]	91.8 ± 2.6%	–	–
CCN(CC)CCNC(=O)c1c(C)[nH]c(/C=C2\C(=O)Nc3ccc(F)cc32)c1C [Sunitinib malate]	97.4 ± 12.4%	–	–
CCCCc1ncc(/C=C(\Cc2cccs2)C(=O)O)n1Cc1ccc(C(=O)O)cc1 [Eprosartan mesylate]	97.5 ± 15.0%	–	–
C[C@H](Cc1ccccc1)Nc1ncnc2c1ncn2[C@@H]1O[C@H](CO)[C@@H](O)[C@H]1O [R-PIA, reference compound]	–	not identified as hits	–
Fc1cccc(/C=N/N=C/c2cccc(F)c2)c1 [DFB]	94.8 ± 1.4%	–	–
CCCNC(C)C(=O)Nc1ccccc1C (stereo not drawn) [Prilocaine hydrochloride]	106.9 ± 9.7%	–	–
COC(=O)C(C)(N)Cc1ccc(O)cc1.Cl (racemic)	108.9 ± 8.2%	–	–
N[C@@H](COP(=O)(O)O)C(=O)O [O-Phospho-L-serine]	93.4 ± 14.4%	–	–
CP(=O)(O)C1=CCNCC1 [TPMPA]	99.7 ± 3.7%	–	–
N=C(N)N1CCc2ccccc2C1 [Debrisoquin sulfate]	81.0 ± 16.3%	–	–
NS(=O)(=O)c1cccc2c1c([N+](=O)[O-])cc1nc([O-])c([O-])nc12.[Na+].[Na+] [NBQX disodium]	94.5 ± 3.8%	–	–
Oc1cc(-c2ccccc2)nc2nc(Cl)ccc12	77.8 ± 8.8%	–	–
CC(C)(C)NCC(O)c1ccc(O)c(CO)c1.CC(C)(C)NCC(O)c1ccc(O)c(CO)c1.O=S(=O)(O)O (stereo not drawn) [Albuterol hemisulfate]	97.4 ± 12.0%	–	–
Cl.N=C(N)NN [Aminoguanidine hydrochloride]	100.9 ± 6.1%	–	–
OC[C@H]1O[C@@H](n2cnc3c(NC4CCCCC4)ncnc32)[C@H](O)[C@@H]1O [N6-Cyclohexyladenosine]	92.9 ± 12.9%	–	–

SMILES	% 25 nM CA200645 binding	hit in LOPAC primary screen (inhibited the binding of CA200645 by >40%)	% Total CA200645 binding
CC(=O)NC[C@H]1CN(c2ccc(N3CCOCC3)c(F)c2)C(=O)O1 [Linezolid]	100.5 ± 2.1%	–	–
Cc1ccc(/C(=C\CN2CCCC2)c2ccccn2)cc1.Cl [Triprolidine hydrochloride]	90.2 ± 0.5%	–	–
[Cl-].[Li+] [Lithium Chloride]	99.9 ± 5.2%	–	–
CNC(=O)[C@H]1O[C@@H](n2cnc3c(NCc4cccc(I)c4)ncnc32)[C@H](O)[C@@H]1O [IB-MECA, reference compound]	36.3 ± 4.0%	–	36.3 ± 4.0%
O=C(O)CCCCCCCC(=O)O [Azelaic acid]	91.8 ± 5.2%	–	–
CCCN(CCC)C(=O)C(CCC(=O)O)NC(=O)c1ccccc1 (stereo not drawn) [Proglumide]	107.1 ± 0.6%	–	–
Clc1ccc(N2C[C@H]3CC[C@@H](C2)N3)nn1 [DBO-83]	97.7 ± 11.0%	–	–
COC(=O)C1=C(C)NC(C)=C([N+](=O)[O-])C1c1ccccc1C(F)(F)F (racemic) [(±)-Bay K 8644]	95.3 ± 3.4%	–	–
CC1(C)CCC2=C(O1)c1ccccc1C(=O)C2=O [beta-Lapachone]	93.1 ± 5.0%	–	–
NC(N)=Nc1ccc2[nH]c3c(c2c1)C[C@@]1(O)[C@H]2Cc4ccc(O)c5c4[C@@]1(CCN2CC1CC1)[C@H]3O5.O=C(O)C(F)(F)F.O=C(O)C(F)(F)F	93.9 ± 7.0%	–	–
Cc1ccc(C(=O)Nc2ccc(S(=O)(=O)[O-])c3cc(S(=O)(=O)[O-])cc(S(=O)(=O)[O-])c23)cc1NC(=O)c1cccc(NC(=O)Nc2cccc(C(=O)Nc3cc(C(=O)Nc4ccc(S(=O)(=O)[O-])c5cc(S(=O)(=O)[O-])cc(S(=O)(=O)[O-])c45)ccc3C)c2)c1.[Na+].[Na+].[Na+].[Na+].[Na+].[Na+] [Suramin sodium salt]	93.4 ± 9.0%	–	–
COc1cccc(C(=O)NCCN2CCN(c3ccc(Cl)cc3)CC2)c1	94.3 ± 6.0%	–	–
Brc1c(Br)c(Br)c2[nH]cnc2c1Br [TBBz]	74.5 ± 15.0%	–	–
COCCc1ccc(OCC(O)CNC(C)C)cc1.O=C(O)C(O)C(O)C(=O)O (racemic) [(±)-Metoprolol (+)-tartrate]	83.3 ± 9.2%	–	–
Br.NCc1cc(O)no1 [Muscimol hydrobromide]	107.5 ± 2.4%	–	–
CC(C)(Sc1ccc(CCN(CCCCC2CCCCC2)C(=O)NC2CCCCC2)cc1)C(=O)O [GW7647]	55.8 ± 12.2%	–	–
c1ccc2cc(-c3ncc[nH]3)ccc2c1 [Benazoline oxalate]	98.8 ± 14.3%	–	–
COc1cc(C(O)C(=O)O)ccc1O (racemic) [(±)-Vanillylmandelic acid]	97.4 ± 12.9%	–	–
COc1cccc(OC)c1OCCNCC1COc2ccccc2O1.Cl (stereo not drawn) [WB-4101 hydrochloride]	76.0 ± 5.8%	–	–
NCCCNCCSP(=O)(O)O [Amifostine]	94.6 ± 2.0%	–	–
O=C(O)COCCN1CCN(C(c2ccccc2)c2ccc(Cl)cc2)CC1 (stereo not drawn) [Cetirizine dihydrochloride]	98.6 ± 19.3%	–	–
Br.CN1CCc2cc(O)cc3c2[C@H]1Cc1ccc(O)c(O)c1-3	83.0 ± 14.1%	–	–
C[C@H](N)CN1CCc2ccc(Br)cc21.C[C@H](N)CN1CCc2ccc(Br)cc21.O=C(O)/C=C/C(=O)O [VER-3323 hemifumarate salt]	107.7 ± 7.9%	–	–
Cl.NC1(C(=O)O)CCCCC1	108.3 ± 1.1%	–	–
S=C(NC1CCCCC1)N1CCC(c2cnc[nH]2)CC1 [Thioperamide maleate]	99.7 ± 10.4%	–	–

same assay, conditions: % of control wells (1% DMSO and 25 nM CA200645); compounds at 10 µM; whole live cells expressing the A3AR; mean ± SD, three experiments in duplicate

SMILES	% 25 nM CA200645 binding
CN(C(=O)CCCOc1ccc2[nH]c(=O)ccc2c1)C1CCCCC1 [Cilostamide]	75.9 ± 3.4%
CC1=C(C)C(=O)C(CCCCC#CCCCC#CCO)=C(C)C1=O [AA-861]	69.6 ± 8.4%

same assay, conditions: compounds tested at 10 µM; % of control wells (1% DMSO and 25 nM CA200645); whole live cells expressing the A3AR; mean ± SD, three experiments in duplicate

SMILES	% 25 nM CA200645 binding
CC(C)C[C@H](NP(=O)([O-])O[C@H]1O[C@H](C)[C@@H](O)[C@H](O)[C@@H]1O)C(=O)N[C@@H](Cc1c[nH]c2ccccc12)C(=O)[O-].[Na+].[Na+] [Phosphoramidon disodium]	101.2 ± 7.1%
